Legend:
human ApoB-100 = test: Drug treatment of humanized FRGN avatar mice, serum human ApoB-100 and albumin by ELISA; type: in vivo; settings: i.p., 48-hour period, Digoxin 0.5 mg/kg, Proscillaridin 0.6 mg/kg/day, p≦0.05
Protocol: Prior to any drug or vehicle treatment, the ratio of ApoB-100 to albumin is approximately 30% higher in the serum of avatars repopulated with hepatocytes from donor A compared to donor B (p=0.032) (FIG. 8A). Human ApoB-100 and albumin is then measured before and after treatment with DMSO (vehicle), Digoxin or Proscillaridin, over a 48-hour period of time (FIG. 8C). […] The concentration of human albumin is unaffected in the serum of the same animals (FIG. 8B).
A sandwich ELISA to detect human albumin in tissue culture supernatants and mouse sera uses a 1:100 dilution of a capture human albumin coating antibody (Bethyl laboratories, A80-129A) and a 1:85,000 dilution of a Horseradish Peroxidase (HRP) conjugated human albumin detection antibody (Bethyl laboratories, A80-129P). Bound antibody is detected using 3,3′,5,5′-tetramethylbenzidine (TMB) and the concentration of albumin in each sample is determined by comparing to a standard curve (Bethyl laboratories, RS10-110). Human lipidated apoB-100 is detected using a commercial sandwich ELISA (product code: 3715-1H-6; MabTech, Inc.) and detected using TMB. The concentration of apoB-100 is determined by comparing to a standard curve using lipidated apoB-100 supplied by the manufacturer.
Fah^−/−Rag2^−/−IL2 gr^−/−NOD (FRGN) mice are generated and supplied by Dr. Markus Grompe. […]

hepatocytes = test: Lipoprotein profile (VLDL/LDL/HDL) of hepatocyte secretion by FPLC; type: cell-based; settings: 310 nm; 4-hr collection period
Protocol: FIGS. 13A-B (A) is a graph of the results of a FPLC showing the impact of Digoxin and Proscillaridin on the increase in the size of LDL/VLDL particles and the increase of HDL particle number in serum (FIG. 13B, enhanced).
The experiment is a simple collection of cell culture media and then uses a known assay to measure VLDL/LDL/HDL by HPLC.
Cell culture media (the serum samples of example 5) is collected and then using a known assay (see, Example 3) VLDL/LDL/HDL is measured by FPLC HPLC. The experiment was performed by Evanthia Pashos Ph.D, a post-doctoral researcher at the University of Pennsylvania. Dr. Pashos was instructed what concentration of drugs to use, how long to incubate, and to record lipoprotein profiles for HDL, LDL, VLDL. […] Hepatocyte secretion was collected and analyzed over a 4-hr collection period.

[1] = test system: FH patient-specific iPSC-derived hepatocytes; test: ApoB-100 ELISA on culture medium of FH patient-specific iPSC-derived hepatocytes ([…] screen and triplicate validation); type: cell-based, human; settings: tested in triplicate; FIG. 3
Protocol: ApoB-100 secretion is measured by enzyme linked immunosorbent assay (ELISA) using an antibody that specifically detects lipidated apoB-100, which represents lipoprotein particles secreted by the iPSC-derived hepatocytes. […] FH patient-specific iPSC cells are differentiated to hepatocyte-like cells in 96-well plates and the levels of lipidated ApoB-100 are measured before and after the application of 2320 small molecules from the [sequence] collection drug library (FIGS. 2A-B).
Using the before-drug and after-drug ApoB-100 concentration for each individual well (see the Examples below; each well represents 1 drug), a post:pre drug ratio of ApoB-100 is generated (referred to as delta-apoB-100; FIGS. 2A and 2B) and primary hits are identified by z-score analysis (FIG. 2B) as described by Zhang (Zhang, X. D., J Biomol Screen 16, 775-785 (2011)). A z-score is calculated for each compound, representing a multiple of the standard deviation of all the compounds included in the parent plate (30 plates total—FIG. 2A). […]
Pre-drug and post-drug apoB-100 concentrations are determined for each compound in the [sequence] library using a standard curve and four-parameter logistic (4PL) regression model. […] Primary hits are validated in secondary replicate experiments (n=3), and statistical significance is determined by a Student's t-test. […]

Na+/K+-ATPase α2 subunit = Na+/K+-ATPase α2 subunit (Rattus norvegicus, UniProt P06686); settings: Kolansky et al. 1992; cited from earlier work
Na+/K+-ATPase α3 subunit = Na+/K+-ATPase α3 subunit (Rattus norvegicus, UniProt P06687); settings: Kolansky et al. 1992; cited from earlier work

Row | Molecule | serum human ApoB-100 levels (human ApoB-100) | HDL secretion (hepatocytes) | VLD/LDL particle size (hepatocytes) | VLD/LDL total quantity (hepatocytes) | Reductions of ApoB-100 levels, of DMSO controls [1] | ouabain sensitivity (Na+/K+-ATPase α2 subunit) | ouabain sensitivity (Na+/K+-ATPase α3 subunit)
1 | CC1O[C@@H](O[C@H]2C(O)C[C@H](O[C@H]3C(O)C[C@H](OC4CC[C@@]5(C)[C@H](CC[C@@H]6[C@@H]5C[C@@H](O)[C@]5(C)[C@@H](C7=CC(=O)OC7)CC[C@]65O)C4)OC3C)OC2C)CC(O)[C@@H]1O (stereo partly drawn) [Digoxin] | significantly reduces serum ApoB-100 levels | increase HDL secretion | increase VLD/LDL particle size | reduce VLD/LDL total quantity |  |  | 
2 | C[C@@H]1O[C@@H](O[C@H]2C[C@@H](O)[C@]3(CO)[C@H]4[C@H](O)C[C@]5(C)[C@@H](C6=CC(=O)OC6)CC[C@]5(O)[C@@H]4CC[C@]3(O)C2)[C@H](O)[C@H](O)[C@H]1O [Ouabain, Ouabain (Strophanthin)] |  |  |  |  | 71% | approximately 40 nM | ~80 nM
3 | C[C@@H]1OC(O[C@@H]2C=C3CC[C@@H]4[C@H](CC[C@]5(C)[C@@H](c6ccc(=O)oc6)CC[C@]45O)[C@@]3(C)CC2)[C@H](O)C(O)C1O (stereo partly drawn) [Proscillaridin] | significantly reduces serum ApoB-100 levels | increase HDL secretion | increase VLD/LDL particle size | reduce VLD/LDL total quantity |  |  | 
4 | Gitoxin |  |  |  |  | 27% |  | 
